Measured values: US6423695B1, “Cytokine related treatments of disease” (Ribapharm, Inc., priority 1998, dated 2002)
Entries after “also recorded” stand apart in the source; their conditions may differ.

Tests used:
Th1 and Th2 responses = assay: Modulation of Th1 and Th2 responses at administered dose; format: in vivo
Excerpt: The effects of 2-β-D-ribofuranosylthiazole-4-carboxamide (Tiazofurin), a synthetic C-nucleoside analogue, on GTP levels supports this view. Tumor cells are characterized by high levels of inosine monophosphate dehydrogenase (IMP DH) activity, and it is known that IMP DH is the rate-limiting enzyme of GTP biosynthesis. Weber, G., IMP Dehydrogenase and GTP as Targets in Human Leukemia Treatment. Adv. Exp. Med. Biol. 309B:287-292 (1991). […] Weber, G., Critical Issues in Chemotherapy with Tiazofurin, Adv. Enzyme Regul. 29:75-95 (1989). Typical initial doses of Tiazofurin are about 4,400 mg/m^2, with consolidation doses of about 1100 to 3300 mg/m^2. […] In one aspect of the present invention it is contemplated that much smaller doses of Tiazofurin, in the range of 1/10th to one-half that set forth above, would be sufficient to specifically suppress either a Th1 response or a Th2 response without greatly reducing the other response.
The effects of 1β-D-ribofuranosyl-1,2,4-triazole-3-carboxamide (Ribavirin) also supports the present theory. […] Yamada, Y. et al., Action of the Active Metabolites of Tiazofurin and Ribavirin on Purified IMP Dehydrogenase, Biochem. 27:2193-2196 (1988). Ribavirin proceeds under a different mechanism than Tiazofurin in inhibiting IMP DH, however, acting on a different site on the enzyme molecule. Ribavirin is converted to its active metabolite, ribavirin-monophosphate (RMP), which inhibits the enzyme at the IMP-XMP site of IMP DH. As with Tiazofurin, the affinity of Ribavirin's active form to the enzyme is higher than that of the natural metabolite.
In another aspect of the invention, an abnormality reflected in increased response in one group of cytokines is treated by administering a nucleoside or other compound that increases response in another group of cytokines. Thus, for example, a common rapid onset type of allergy results in an abnormally elevated Th2 response.
It is also contemplated that an abnormality reflected in increased response in one group of cytokines can be treated by administering a nucleoside that increases response in another group of cytokines.

[1] = test system: inosine monophosphate dehydrogenase (IMP DH); conditions: cited from earlier work
guanine nucleotide pools = conditions: cited from earlier work
tumors = conditions: in vivo; cited from earlier work
[2] = approximately 600 to 1000 mg/day

Row | SMILES | Th1 and Th2 responses (Th1 and Th2 responses; Tiazofurin initial doses about 4,400 mg/m^2, consolidation doses about 1100 to 3300 mg/m^2) | IMP DH activity [1] | guanine nucleotide pools (guanine nucleotide pools) | tumor remission (tumors) | Th1 response (Th1 and Th2 responses; [2]) | Th2 response (Th1 and Th2 responses; [2]) | Th1 response (Th1 and Th2 responses; low dosages of about 500 mg/day to about 1,000 mg/day) | Th1 and Th2 responses (Th1 and Th2 responses; relatively high doses, approximately 2200 mg/m^2 or about 1200-1500 mg/day for an adult)
1 | NC(=O)c1csc([C@@H]2O[C@H](CO)[C@@H](O)[C@H]2O)n1 [Tiazofurin, 2-β-D-ribofuranosylthiazole-4-carboxamide] | greatly reduced | selectively block IMP DH activity | deplete guanine nucleotide pools | forces various tumors into remission |  |  |  | 
2 | NC(=O)c1ncn([C@@H]2O[C@H](CO)[C@@H](O)[C@H]2O)n1 [Ribavirin, 1β-D-ribofuranosyl-1,2,4-triazole-3-carboxamide] |  | inhibit IMP DH |  |  | promotes a Th1 response; also recorded: Th1 response is induced | suppresses a Th2 response; also recorded: Th2 response is suppressed | increases Th1 response | both Th1 and Th2 responses are inhibited
